According to patent publication US9890185B2, “Urea derivatives useful as kinase inhibitors” (Respivert Limited, priority 2013, dated 2018):
Read-outs that look alike come from different tables or passages of the source.

How the values were obtained:
c-Src = c-Src (Homo sapiens (Human), UniProt P12931); assay: c-Src enzyme inhibition (FRET, Z-LYTE); type: biochemical
Description: (§1) The enzyme inhibitory activities of compounds disclosed herein are determined by FRET using synthetic peptides labelled with both donor and acceptor fluorophores (Z-LYTE, Invitrogen Ltd., Paisley, UK).
(§2) The inhibitory activities of compounds of the invention against c-Src and Syk enzymes (Invitrogen), are evaluated in a similar fashion to that described hereinabove. The relevant enzyme (3000 ng/mL or 2000 ng/mL respectively, 2.5 μL) is incubated with the test compound (either 4 μg/mL, 0.4 μg/mL, 0.04 μg/mL, or 0.004 μg/mL, 2.5 μL each) for 2 hr at RT. The FRET peptides (8 μM, 2.5 μL), and appropriate ATP solutions (2.5 μL, 800 μM for c-Src, and 60 μM ATP for Syk) are then added to the enzymes/compound mixtures and incubated for 1 hr. Development reagent (protease, 5 μL) is added for 1 hr prior to detection in a fluorescence microplate reader (Varioskan® Flash, ThermoFisher Scientific).
(§3) In all cases, the site-specific protease cleaves non-phosphorylated peptide only and eliminates the FRET signal. Phosphorylation levels of each reaction are calculated using the ratio of coumarin emission (donor) over fluorescein emission (acceptor), for which high ratios indicate high phosphorylation and low ratios indicate low phosphorylation levels. The percentage inhibition of each reaction is calculated relative to non-inhibited control and the 50% inhibitory concentration (IC50 value) is then calculated from the concentration-response curve.

Syk = Syk (Homo sapiens (Human), UniProt P43405); assay: Syk enzyme inhibition (FRET, Z-LYTE); type: biochemical
Description: as §1, §2, §3

GSK 3α = GSK 3α (Homo sapiens (Human), UniProt P49840); assay: GSK 3α enzyme inhibition (FRET, Z-LYTE, Method 2); type: biochemical; conditions: read-out: IC50 Values for Enzyme Inhibition, GSK3α
Sequence of GSK 3α (P49840 whole entry): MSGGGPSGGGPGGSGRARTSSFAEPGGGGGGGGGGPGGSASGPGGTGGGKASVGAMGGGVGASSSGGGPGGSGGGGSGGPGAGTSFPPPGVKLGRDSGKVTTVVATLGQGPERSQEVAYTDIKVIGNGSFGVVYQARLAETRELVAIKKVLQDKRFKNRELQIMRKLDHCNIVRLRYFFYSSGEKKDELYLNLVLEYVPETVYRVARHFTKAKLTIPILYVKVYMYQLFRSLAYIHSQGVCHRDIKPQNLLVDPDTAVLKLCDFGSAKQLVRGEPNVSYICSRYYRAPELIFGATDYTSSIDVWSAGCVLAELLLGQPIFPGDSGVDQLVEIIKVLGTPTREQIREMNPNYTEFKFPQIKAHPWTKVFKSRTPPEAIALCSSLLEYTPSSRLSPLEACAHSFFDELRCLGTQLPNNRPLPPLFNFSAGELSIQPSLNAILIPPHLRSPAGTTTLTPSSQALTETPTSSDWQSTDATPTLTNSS
Method in brief: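 Recombinant human GSK3α was preincubated with compound (stocks 4, 0.4, 0.04 or 0.004 μg/mL) at RT, 2 hr for Method 1 and 105 min for Method 2. FRET peptide (8 μM stock) and ATP (40 μM stock) were added for 1 hr, then protease development for 1 hr. IC50 was taken from concentration–response curves.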

PBMCs = assay: LPS-induced IL-8 release in PBMC cells (assay b); type: cell-based, human; conditions: LPS-stimulated PBMCs, read-out: IC50 Values for Inhibition of Cytokine Release, PBMCs IL-8
Method in brief: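 Human PBMCs from healthy donors, isolated by density gradient, were pretreated with compound for 2 h and then stimulated with 1 ng/mL LPS (E. coli 0111:B4) for 24 h at 37° C, 5% CO2. Supernatant IL-8 and TNFα were measured by sandwich ELISA, and IC50 was taken from the dose-response curve.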

d-U937 cells = assay: Accumulation of β catenin in d-U937 cells (assay m); type: cell-based, human; conditions: percentage relative to Reference Compound at 1 μg/mL
Description: U937 cells, a human monocytic cell line, are differentiated into macrophage-type cells by incubation with PMA; (100 ng/mL) for between 48 to 72 hr. The cells are then incubated with either final concentrations of test compound or vehicle for 18 hr. The induction of β-catenin by the test compounds is stopped by replacing the media with 4% formaldehyde solution. Endogenous peroxide activity is neutralised by incubating with quenching buffer (100 μL, 0.1% sodium azide, 1% H2O2 in PBS with 0.05% Tween-20) for 20 min. The cells are washed with washing buffer (200 μL; PBS containing 0.05% Tween-20) and incubated with blocking solution (200 μL; 5% milk in PBS) for 1 hr, re-washed with washing buffer (200 μL) and then incubated overnight with anti-β-catenin antibody solution (50 μL) in 1% BSA/PBS (BD, Oxford, UK).
After washing with washing buffer (3×200 μL; PBS containing 0.05% Tween-20), cells are incubated with an HRP-conjugated secondary antibody solution (100 μL) in 1% BSA/PBS (Dako, Cambridge, UK) and the resultant signal is determined colourimetrically (OD: 450 nm with a reference wavelength of 655 nm) using TMB substrate (50 μL; R&D Systems, Abingdon, UK). This reaction is stopped by addition of 1N H2SO4 solution (50 μL). Cells are then washed with washing buffer and 2% crystal violet solution (50 μL) is applied for 30 min. After washing with washing buffer (3×200 μL), 1% SDS (100 μL) is added to each well and the plates are shaken lightly for 1 hr prior to measuring the absorbance at 595 nm (Varioskan® Flash, Thermo-Fisher Scientific).
The measured OD450-655 readings are corrected for cell number by dividing the OD450-655 by the OD595 readings.

[1] = target: p38 MAPKα isoform (MAPK14) (Homo sapiens (Human), UniProt Q16539); assay: p38 MAPKα enzyme inhibition (FRET, Z-LYTE, Method 2); type: biochemical
Sequence of p38 MAPKα isoform (MAPK14) (Q16539 whole entry, canonical isoform): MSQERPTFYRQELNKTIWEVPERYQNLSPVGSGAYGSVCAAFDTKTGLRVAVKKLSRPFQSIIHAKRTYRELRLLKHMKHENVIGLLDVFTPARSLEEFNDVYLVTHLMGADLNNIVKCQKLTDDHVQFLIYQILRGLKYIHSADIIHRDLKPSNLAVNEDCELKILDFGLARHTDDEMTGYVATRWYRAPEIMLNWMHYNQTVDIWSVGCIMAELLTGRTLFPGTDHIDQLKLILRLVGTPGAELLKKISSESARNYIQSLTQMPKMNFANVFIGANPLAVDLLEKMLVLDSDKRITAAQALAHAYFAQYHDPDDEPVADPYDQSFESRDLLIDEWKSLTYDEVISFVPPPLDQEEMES
Description: as §1
The following two assay variants can be used for determination of p38 MAPKα inhibition.
The inhibitory activities of test compounds against the p38 MAPKα isoform (MAPK14: Invitrogen), are evaluated indirectly by determining the level of activation/phosphorylation of the down-stream molecule, MAPKAP-K2. The p38 MAPKα protein (80 ng/mL, 2.5 μL) is mixed with the test compound (2.5 μL of either 4 μg/mL, 0.4 μg/mL, 0.04 μg/mL or 0.004 μg/mL) for 2 hr at RT. […] The mixture is incubated for 1 hr at RT. Development reagent (protease, 5 μL) is added for 1 hr prior to detection in a fluorescence microplate reader (Varioskan® Flash, ThermoFisher Scientific).
This method follows the same steps as Method 1 above, but utilises a higher concentration of the p38 MAPKα protein (2.5 μL of 200 ng/mL protein instead of 2.5 μL of 80 ng/mL protein) for mixing with the test compound.
as §3

Sequence of c-Src (P12931 whole entry, looked up): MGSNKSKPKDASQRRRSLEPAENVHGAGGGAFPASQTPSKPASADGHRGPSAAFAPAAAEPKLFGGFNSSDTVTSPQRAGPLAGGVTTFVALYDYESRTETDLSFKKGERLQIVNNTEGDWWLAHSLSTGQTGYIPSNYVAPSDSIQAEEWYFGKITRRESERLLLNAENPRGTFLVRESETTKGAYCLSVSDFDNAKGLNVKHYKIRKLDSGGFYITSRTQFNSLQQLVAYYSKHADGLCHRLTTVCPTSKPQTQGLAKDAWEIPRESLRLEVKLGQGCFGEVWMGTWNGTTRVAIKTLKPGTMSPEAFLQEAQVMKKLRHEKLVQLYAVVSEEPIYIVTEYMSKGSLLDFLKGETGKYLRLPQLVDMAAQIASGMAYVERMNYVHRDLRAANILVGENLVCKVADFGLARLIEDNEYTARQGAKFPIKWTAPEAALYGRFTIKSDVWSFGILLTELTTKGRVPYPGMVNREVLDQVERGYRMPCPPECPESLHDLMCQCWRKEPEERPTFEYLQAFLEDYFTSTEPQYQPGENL

| SMILES | IC50 (c-Src) [nM] | IC50 (Syk) [nM] | IC50 (GSK 3α) [nM] | IC50 (PBMCs; Homo sapiens, PBMC) [nM] | % β-catenin induction (d-U937 cells; test compound 1 μg/mL) [%] | % β-catenin induction (d-U937 cells; test compound 5 μg/mL) [%] | % β-catenin induction (d-U937 cells; test compound 10 μg/mL) [%] | IC50 (PBMCs) [nM] | IC50 [1] [nM] |
| --- | --- | --- | --- | --- | --- | --- | --- | --- | --- |
| COc1c(CNS(C)(=O)=O)cc(C(C)(C)C)cc1NC(=O)Nc1ccc(Oc2ccnc(Nc3ccccc3)c2)c2ccccc12 [15(aq), N-(5-(tert-butyl)-2-methoxy-3-(3-(4-((2-(phenylamino)pyridin-4-yl)oxy)naphthalen-1-yl)ureido)benzyl)methanesulfonamide] | 160 | 1520 | 3290 | 4.4 |  |  |  |  |  |
| COc1c(NC(=O)Nc2ccc(Oc3ccnc(Nc4ccccc4)n3)c3ccccc23)cc(C(C)(C)C)cc1OCP(C)(C)=O [15(d), 1-(5-(tert-butyl)-3-((dimethylphosphoryl)methoxy)-2-methoxyphenyl)-3-(4-((2-(phenylamino)pyrimidin-4-yl)oxy)naphthalen-1-yl)urea] | 61 | 477 | 919 | 6.2 | 11.0 | 92.0 | 31.0 |  |  |
| COc1cccc(Nc2nccc(Oc3ccc(NC(=O)Nc4cc(C(C)(C)C)cc(P(C)(C)=O)c4OC)c4ccccc34)n2)c1 [15(g), 1-(5-(tert-butyl)-3-(dimethylphosphoryl)-2-methoxyphenyl)-3-(4-((2-((3-methoxy-phenyl)amino)pyrimidin-4-yl)oxy)naphthalen-1-yl)urea] |  |  | 757 |  | 15.0 | 94.0 | 94.0 | 1.9 |  |
| COc1c(NC(=O)Nc2ccc(Oc3ccnc(Nc4ccccc4)c3)c3ccccc23)cc(C(C)(C)C)cc1S(C)(=O)=O [15(m), 1-(5-(tert-butyl)-2-methoxy-3-(methylsulfonyl)phenyl)-3-(4-((2-(phenylamino)pyridin-4-yl)oxy)naphthalen-1-yl)urea] |  |  | > 16400 | 16 | −3.0 | 5.0 | 5.0 |  | 747 |
| COc1cc(Nc2cc(Oc3ccc(NC(=O)Nc4cc(C(C)(C)C)cc(CC(N)=O)c4OC)c4ccccc34)ccn2)cc(C(=O)NCC(CO)(CO)CO)c1 [38(al), 3-((4-((4-(3-(3-(2-Amino-2-oxoethyl)-5-(tert-butyl)-2-methoxyphenyl)ureido)naphthalen-1-yl)oxy)pyridin-2-yl)amino)-N-(3-hydroxy-2,2-bis(hydroxymethyl)propyl)-5-methoxybenzamide] |  |  | 1970 | 7.2 |  |  |  |  | 44 |
| COc1cc(Nc2cc(Oc3ccc(NC(=O)Nc4cc(C(C)(C)C)cc([S+](C)[O-])c4OC)c4ccccc34)ccn2)ccc1C(=O)O (centres unmarked) [79(g), 4-((4-((4-(3-(5-(tert-Butyl)-2-methoxy-3-(methylsulfinyl)phenyl)ureido)naphthalen-1-yl)oxy)pyridin-2-yl)amino)-2-methoxybenzoic acid] | 17 | 5 |  | 5.3 |  |  |  |  |  |
| COCCOCCOCCNC(=O)c1cc(C(C)(C)C)cc(NC(=O)Nc2ccc(Oc3ccnc(Nc4cc(OC)cc(OCCOCCOCCOC)c4)n3)c3ccccc23)c1OC [Example 7, 5-(tert-Butyl)-2-methoxy-3-(3-(4-((2-((3-methoxy-5-(2-(2-(2-methoxyethoxy)ethoxy)ethoxy)-phenyl)amino)pyrimidin-4-yl)oxy)naphthalen-1-yl)ureido)-N-(2-(2-(2-methoxyethoxy)ethoxy)-ethyl)benzamide] |  | 57 | 1070 | 4.6 |  |  |  |  | 108 |
| CC(C)(C)c1cc(NC(=O)Nc2ccc(Oc3ccnc(Nc4ccccc4)c3)c3ccccc23)c(O)c(P(C)(C)=O)c1 [Example 39, 1-(5-(tert-Butyl)-3-(dimethylphosphoryl)-2-hydroxyphenyl)-3-(4-((2-(phenylamino)pyridin-4-yl)oxy)naphthalen-1-yl)urea] |  |  | > 12600 | 31.4 |  |  |  |  |  |
| COc1cc(Nc2cc(Oc3ccc(NC(=O)Nc4cc(C(C)(C)C)cc(OCC(CO)(CO)CO)c4OC)c4ccccc34)ccn2)cc(C(N)=O)c1 [Example 67, 3-((4-((4-(3-(5-(tert-Butyl)-3-(3-hydroxy-2,2-bis(hydroxymethyl)propoxy)-2-methoxyphenyl)ureido)naphthalen-1-yl)oxy)pyridin-24)amino)-5-methoxybenzamide] |  |  | 4260 | 5.6 |  |  |  |  | 284 |
| COc1c(NC(=O)Nc2ccc(Oc3ccnc(Nc4cc(C)c5[nH]ncc5c4)n3)c3ccccc23)cc(C(C)(C)C)cc1[S+](C)[O-] (centres unmarked) [Example 74, 1-(5-(tert-Butyl)-2-methoxy-3-(methylsulfinyl)phenyl)-3-(4-((2-((7-methyl-1H-indazol-5-yl)amino)pyrimidin-4-yl)oxy)naphthalen-1-yl)urea] |  |  | 1230 | 1.6 |  |  |  |  |  |
| COc1cc(Nc2cc(Oc3ccc(NC(=O)Nc4cc(C(C)(C)C)cc(P(C)(C)=O)c4OC)c4ccccc34)ccn2)ccc1C(=O)O [Example 76, 4-((4-((4-(3-(5-(tert-Butyl)-3-(dimethylphosphoryl)-2-methoxyphenyl)ureido)naphthalen-1-yl)oxy)pyridin-2-yl)amino)-2-methoxybenzoic acid] |  |  | 70 | 41.5 |  |  |  |  |  |
| CNC(=O)c1cc(CN2CCN(C)CC2)cc(Nc2cc(Oc3ccc(NC(=O)Nc4cc(C(C)(C)C)cc(P(C)(C)=O)c4OC)c4ccccc34)ccn2)c1 [Example 78, 3-((4-((4-(3-(5-(tert-Butyl)-3-(dimethylphosphoryl)-2-methoxyphenyl)ureido)naphthalen-1-yl)oxy)pyridin-2-yl)amino)-N-methyl-5-((4-methylpiperazin-1-yl)methyl)benzamide] |  |  | 773 | 23 |  |  |  |  |  |
| COCC(=O)Nc1cc(Oc2ccc(NC(=O)Nc3cc(C(C)(C)C)nn3-c3ccc(C)cc3)c3ccccc23)ccn1 [Reference Compound, N-(4-(4-(3-(3-tert-butyl-1-p-tolyl-1H-pyrazol-5-yl)ureido)naphthalen-1-yloxy)pyridin-2-yl)-2-methoxyacetamide, reference compound] |  |  |  |  | 100 |  |  |  |  |
